{
  "source": "patent US7244557B2",
  "about": "“Method of screening modulators of Nod1 signaling” (Regents of the University of Michigan, priority 2003, dated 2007)",
  "molecular_target": "T1, NOD1ΔLRR (Homo sapiens, UniProt Q9Y239)",
  "T1 construct": "pcDNA3-NOD1-ΔLRR(1–648)-FLAG; expressed in transfected cells; host or cells: HEK293T",
  "T1 sequence (Q9Y239 1-648)": "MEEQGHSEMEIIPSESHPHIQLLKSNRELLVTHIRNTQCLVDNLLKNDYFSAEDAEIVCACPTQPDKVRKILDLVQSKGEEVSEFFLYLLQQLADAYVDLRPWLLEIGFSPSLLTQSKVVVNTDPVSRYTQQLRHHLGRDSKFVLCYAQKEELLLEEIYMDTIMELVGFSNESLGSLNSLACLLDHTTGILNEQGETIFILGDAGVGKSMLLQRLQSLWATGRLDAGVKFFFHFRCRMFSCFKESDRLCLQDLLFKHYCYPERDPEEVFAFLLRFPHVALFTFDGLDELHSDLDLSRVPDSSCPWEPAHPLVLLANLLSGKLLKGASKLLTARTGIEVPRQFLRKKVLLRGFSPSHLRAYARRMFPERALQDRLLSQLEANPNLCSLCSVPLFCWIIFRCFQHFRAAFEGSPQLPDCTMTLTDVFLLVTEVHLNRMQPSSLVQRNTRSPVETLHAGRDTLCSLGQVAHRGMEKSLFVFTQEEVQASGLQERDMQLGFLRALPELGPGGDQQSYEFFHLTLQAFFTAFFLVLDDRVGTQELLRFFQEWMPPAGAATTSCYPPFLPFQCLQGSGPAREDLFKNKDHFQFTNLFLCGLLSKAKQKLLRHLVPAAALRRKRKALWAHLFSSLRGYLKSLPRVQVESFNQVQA",
  "experiment": "NF-κB activation assay, cells expressing mutant NOD1 lacking LRRs",
  "assay_type": "cell-based",
  "method": "A) Structure of purified PGN fraction from B. subtilis (GM3P) and synthetic PGN-related compounds used in the study. B) Structure of MDP and four copies of GlcNAc-MurNAc with attached L-Ala-γ-D-Gln (4 mer) are indicated by closed and dotted boxes, respectively. C) The ability of cells were transfected with 0.3 ng pcDNA3-NOD1-Flag, 0.1 ng pcDNA3-Nod2 (NOD2) or vector control and reporter pBxIV-luc and pEF-BOS-β-gal plasmids to activate NF-κB. D) The ability of synthetic peptides, iE-DAP and iQ-DAP to stimulate NF-κB activation in the presence of control vector (−) and plasmids encoding NOD1 wild-type, mutant NOD1 lacking LRRs (NOD1ΔLRR) and NOD2. E) The ability of iE-DAP, iQ-DAP and sBLP (1 μg/ml) to activate NF-κB.\nReagents. LPS from S. typhimurium, intact and alkaline-detoxified LPS from E. coli O55:B5 as well as purified lipid A preparations of E. coli F583, MDP, DAP and dsRNA were obtained from Sigma-Aldrich (St. Louis, Mo.). PGN from S. aureus was from Fluka-Chemie (Buchs, Germany). Palmitoyl-Cys ((RS)-2,3-di(palmitoyloxy)-propyl)-Ala-Gly) (sBLP), was obtained from Bachem (Torrance, Calif.). […] The amino acid composition of E. coli O55:B5 LPS was determined using AccQ·Tag amino acid analysis system (Waters, Milford, Mass.) after hydrolysis at 110° C. for 24 hr. […]",
  "data": [
    {"substance": "γ-D-glutamy-meso-diaminopimelic acid [iE-DAP]", "values": [
      {"measurement": "NF-κB activation by mutant NOD1 lacking the LRRs", "value": "did not respond"}
    ]}
  ]
}
